# Experimental data: ChEMBL document CHEMBL3797024, “Exploring new chemical functionalities to improve aromatase inhibition of steroids” (Bioorg Med Chem, 2016)
# Assays:
# Aromatase [1] = target: T1, Aromatase (Homo sapiens, UniProt P11511); test: Inhibition of human placental aromatase expressed in human MCF7 cells using [1beta-3H]-androstenedione as substrate assessed as tritiated H2O release at 10 uM after 1 hr by liquid scintillation counting method in presence of progesterone relative to control; assay type: cell-based
# T1 sequence (P11511 whole entry): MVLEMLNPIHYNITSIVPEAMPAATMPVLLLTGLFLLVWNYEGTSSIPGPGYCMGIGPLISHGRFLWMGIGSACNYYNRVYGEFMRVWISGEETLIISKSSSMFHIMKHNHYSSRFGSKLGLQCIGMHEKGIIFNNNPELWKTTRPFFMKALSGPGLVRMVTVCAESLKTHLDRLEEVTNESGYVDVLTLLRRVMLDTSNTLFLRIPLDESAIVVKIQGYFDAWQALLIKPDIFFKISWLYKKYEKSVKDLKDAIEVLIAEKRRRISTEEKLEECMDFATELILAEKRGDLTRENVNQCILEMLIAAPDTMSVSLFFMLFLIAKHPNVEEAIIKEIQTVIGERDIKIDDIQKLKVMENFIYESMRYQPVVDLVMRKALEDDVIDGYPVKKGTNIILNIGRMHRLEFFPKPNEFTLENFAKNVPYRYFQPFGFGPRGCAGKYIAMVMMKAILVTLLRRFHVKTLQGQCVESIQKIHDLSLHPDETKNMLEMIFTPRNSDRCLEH
# Aromatase [2] = target: T1, Aromatase; test: Inhibition of aromatase in human placental microsomes using [1beta-3H]-androstenedione as substrate assessed as tritiated H2O release at 2 uM after 15 mins by liquid scintillation counting method relative to control; set-up: species or system Placenta; conditions: 0.25 h
# Aromatase [3] = target: T1, Aromatase; test: Inhibition of aromatase in human placental microsomes using [1beta-3H]-androstenedione as substrate assessed as tritiated H2O release after 15 mins by liquid scintillation counting method; set-up: species or system Placenta
# Aromatase [4] = target: T1, Aromatase; test: Inhibition of aromatase in human placental microsomes using [1beta-3H]-androstenedione as substrate assessed as tritiated H2O release at 0.5 uM after 15 mins by liquid scintillation counting method relative to control; set-up: species or system Placenta; conditions: 0.25 h
# Aromatase [5] = target: T1, Aromatase; test: Inhibition of human placental aromatase expressed in human MCF7 cells using [1beta-3H]-androstenedione as substrate at 1 uM after 1 hr by liquid scintillation counting method in presence of progesterone relative to control; assay type: cell-based
Structure (SMILES),inhibition at 10 µM (Aromatase [1]) [%],inhibition at 2 µM (Aromatase [2]) [%],other results
C[C@]12CCC=C[C@@H]1CC[C@@H]1[C@@H]2CC[C@]2(C)C(=O)CC[C@@H]12,56.9,–,–
C[C@]12CC[C@H]3O[C@H]3[C@@H]1CC[C@@H]1[C@@H]2CC[C@]2(C)C(=O)CC[C@@H]12,80.4,–,–
C[C@]12CCCC=C1CC[C@@H]1[C@@H]2CC[C@]2(C)C(=O)CC[C@@H]12,62.6,–,–
C[C@]12CC[C@H]3[C@@H](CC[C@@]45O[C@@H]4CCC[C@]35C)[C@@H]1CCC2=O,53.2,–,–
C=CC[C@@H]1CC2=CC(=O)C=C[C@]2(C)[C@H]2CC[C@]3(C)C(=O)CC[C@H]3[C@H]12,94.2,94.5,–
C[C@]12C=CC(=O)C=C1C[C@@H](CC1CO1)[C@@H]1[C@@H]2CC[C@]2(C)C(=O)CC[C@@H]12 (some centres undefined),72.3,76.3,–
C[C@]12CC[C@H]3C[C@H]3[C@@H]1CC[C@@H]1[C@@H]2CC[C@]2(C)C(=O)CC[C@@H]12,89.3,95.3,IC50 (Aromatase [3]): 110 nM
C[C@]12CCC(=O)C=C1CC[C@@H]1C2=CC[C@]2(C)C(=O)CC[C@@H]12,96.4,95.2,–
C[C@]12CC[C@H]3[C@@H](CC[C@]45O[C@H]4CCC[C@]35C)[C@@H]1CCC2=O,64.8,85.5,IC50 (Aromatase [3]): 530 nM
C[C@]12CCC3=C(OCCO3)C1=CC[C@@H]1[C@@H]2CC[C@]2(C)C(=O)CC[C@@H]12,–,55.9,–
C[C@]12CCC(=O)C(O)=C1CC[C@@H]1[C@@H]2CC[C@]2(C)C(=O)CC[C@@H]12 [FORMESTANE],–,–,inhibition at 0.5 µM (Aromatase [4]): 99.2%; inhibition at 1 µM (Aromatase [5]): 96.1%
